# Experimental data reported in US12281363B2, “Methods for detecting antiviral-drug resistant virus” (Secretary of State for Health and Social Care, priority 2018, dated 2025).
# Read-outs that look alike come from different tables or passages of the source.
# Tested on: HSV-1
# Assay: Plaque reduction assay, HSV-1 clinical isolates on Vero cells
# Format: cell-based
# Settings: Human alphaherpesvirus 1, Vero
# Description: Viral isolates were used to infect a sub-confluent monolayer of Vero cells at a concentration of 75 or 50 plaque forming units (PFU) per well for HSV-1 and HSV-2, respectively. […] CMC medium typically used to create a semisolid interface and prevents indiscrimate viral spreading. Other materials (e.g. agar) may also be used to create this interface.
# Cells were fixed with 10% formalin and stained with crystal violet before enumeration of the plaques (microscopic observation or use of fluorescent antibodies for detection is also suitable). The data obtained from these experiments were then expressed as percent inhibition of viral infectivity relative to the no drug control.
# Definitions of phenotypic drug susceptibility classification as sensitive or resistant were as follows: ACV, <3 μM or >40 μM; PCV, <10 μM or >40 μM; CDV, <24 μM or >30 μM; FOS, <250 μM or >400 μM; and ACV, <6.5 μM or >40 μM; PCV, <38 μM or >40 μM; FOS, <250 μM or >400 μM for HSV-1 and HSV-2, respectively. Any IC50 values falling in between these sensitive and resistant cut-offs were reported as intermediate resistance.
# The phenotype (i.e. reactivity to a drug) of the virus was characterised by the plaque reduction assay as described above.
compound,measurement,setting,value
"Nc1nc2c(ncn2CCC(CO)CO)c(=O)[nH]1 [Penciclovir, penciclovir]",IC50,"72 h, isolate HPG053, HSV-1 pol L802R + A834S (2405T>G, 2500G>T), also TK R176W, read-out: Drug susceptibility (IC50 value)",> 160 µM
same,IC50,"isolate HPG002, HSV-1 pol E992K (2974G>A), also TK insert (G) nt 430-436, pol A1169T, read-out: Drug susceptibility (IC50 value)",> 160 µM
same,IC50,"isolate HPG002, HSV-1 pol E992K (2974G>A), also TK insert (G) nt 430-436, pol A1169T, read-out: Drug susceptibility Penciclovir (PCV)",> 40 µM
same,IC50,"isolate HPG003, HSV-1 TK Y172S (515A>C), read-out: Drug susceptibility (IC50 value)",106 µM
same,IC50,"isolate HPG003, HSV-1 TK Y172S (515A>C), read-out: Drug susceptibility Penciclovir (PCV)",> 40 µM
same,IC50,"isolate HPG005, HSV-1 TK A37V (110C>T), read-out: Drug susceptibility (IC50 value)",5.19 µM
same,IC50,"isolate HPG005, HSV-1 TK A37V (110C>T), read-out: Drug susceptibility Penciclovir (PCV)",< 10 µM
same,IC50,"isolate HPG008, HSV-1 TK V204G (611T>G), read-out: Drug susceptibility (IC50 value)",> 160 µM
same,IC50,"isolate HPG008, HSV-1 TK V204G (611T>G), read-out: Drug susceptibility Penciclovir (PCV)",> 40 µM
same,IC50,"isolate HPG009, HSV-1 pol E992K (2974G>A), also pol A1169T, read-out: Drug susceptibility (IC50 value)",4.05 µM
same,IC50,"isolate HPG009, HSV-1 pol E992K (2974G>A), also pol A1169T, read-out: Drug susceptibility Penciclovir (PCV)",< 10 µM
same,IC50,"isolate HPG010, HSV-1 TK Q125* (373C>T), read-out: Drug susceptibility (IC50 value)",87.1 µM
same,IC50,"isolate HPG010, HSV-1 TK Q125* (373C>T), read-out: Drug susceptibility Penciclovir (PCV)",> 40 µM
same,IC50,"isolate HPG011, HSV-1 TK Q125* (373C>T), read-out: Drug susceptibility (IC50 value)",108 µM
same,IC50,"isolate HPG011, HSV-1 TK Q125* (373C>T), read-out: Drug susceptibility Penciclovir (PCV)",> 40 µM
same,IC50,"isolate HPG013, HSV-1 TK M121I (363G>A), read-out: Drug susceptibility (IC50 value)",105 µM
same,IC50,"isolate HPG013, HSV-1 TK M121I (363G>A), read-out: Drug susceptibility Penciclovir (PCV)",> 40 µM
same,IC50,"isolate HPG013, HSV-1 pol D83A (248A>C), also TK M121I, pol A1169T, read-out: Drug susceptibility (IC50 value)",105 µM
same,IC50,"isolate HPG013, HSV-1 pol D83A (248A>C), also TK M121I, pol A1169T, read-out: Drug susceptibility Penciclovir (PCV)",> 40 µM
same,IC50,"isolate HPG014, HSV-1 pol A1115T (3343G>A), read-out: Drug susceptibility (IC50 value)",5.66 µM
same,IC50,"isolate HPG014, HSV-1 pol A1115T (3343G>A), read-out: Drug susceptibility Penciclovir (PCV)",< 10 µM
same,IC50,"isolate HPG014, HSV-1 pol R993C (2977C>T), read-out: Drug susceptibility (IC50 value)",5.66 µM
same,IC50,"isolate HPG014, HSV-1 pol R993C (2977C>T), read-out: Drug susceptibility Penciclovir (PCV)",< 10 µM
same,IC50,"isolate HPG014, HSV-1 pol T54A (160A>G), read-out: Drug susceptibility (IC50 value)",5.66 µM
same,IC50,"isolate HPG014, HSV-1 pol T54A (160A>G), read-out: Drug susceptibility Penciclovir (PCV)",< 10 µM
same,IC50,"isolate HPG015, HSV-1 pol 966stop or F965_I966insF (2892_2893insT to 2895_2896insT), read-out: Drug susceptibility (IC50 value)",8.48 µM
same,IC50,"isolate HPG015, HSV-1 pol 966stop or F965_I966insF (2892_2893insT to 2895_2896insT), read-out: Drug susceptibility Penciclovir (PCV)",< 10 µM
same,IC50,"isolate HPG018, HSV-1 TK frameshift (881delC to 885delC), read-out: Drug susceptibility (IC50 value)",117 µM
same,IC50,"isolate HPG018, HSV-1 TK frameshift (881delC to 885delC), read-out: Drug susceptibility Penciclovir (PCV)",> 40 µM
same,IC50,"isolate HPG018, HSV-1 pol P1199T (3595C>A), also TK deletion (C) nt 881-885, pol A1169T, read-out: Drug susceptibility (IC50 value)",117 µM
same,IC50,"isolate HPG018, HSV-1 pol P1199T (3595C>A), also TK deletion (C) nt 881-885, pol A1169T, read-out: Drug susceptibility Penciclovir (PCV)",> 40 µM
same,IC50,"isolate HPG019, HSV-1 pol K750T (2249A>C), also TK deletion (G) nt 430-436, pol A1169T, read-out: Drug susceptibility (IC50 value)",> 160 µM
same,IC50,"isolate HPG019, HSV-1 pol K750T (2249A>C), also TK deletion (G) nt 430-436, pol A1169T, read-out: Drug susceptibility Penciclovir (PCV)",> 40 µM
same,IC50,"isolate HPG020, HSV-1 pol S911N (2732G>A), also pol A1169T, read-out: Drug susceptibility (IC50 value)",2.48 µM
same,IC50,"isolate HPG020, HSV-1 pol S911N (2732G>A), also pol A1169T, read-out: Drug susceptibility Penciclovir (PCV)",< 10 µM
same,IC50,"isolate HPG021, HSV-1 pol R681Q (2042G>A), also TK deletion (G) nt 430-436, read-out: Drug susceptibility (IC50 value)",> 160 µM
same,IC50,"isolate HPG021, HSV-1 pol R681Q (2042G>A), also TK deletion (G) nt 430-436, read-out: Drug susceptibility Penciclovir (PCV)",> 40 µM
same,IC50,"isolate HPG021, HSV-1 pol T839A (2515A>G), also TK deletion (G) nt 430-436, read-out: Drug susceptibility (IC50 value)",> 160 µM
same,IC50,"isolate HPG021, HSV-1 pol T839A (2515A>G), also TK deletion (G) nt 430-436, read-out: Drug susceptibility Penciclovir (PCV)",> 40 µM
same,IC50,"isolate HPG025, HSV-1 pol E850Q (2548G>C), also TK R216C, read-out: Drug susceptibility (IC50 value)",118 µM
same,IC50,"isolate HPG025, HSV-1 pol E850Q (2548G>C), also TK R216C, read-out: Drug susceptibility Penciclovir (PCV)",> 40 µM
same,IC50,"isolate HPG026, HSV-1 pol E850Q (2548G>C), also TK R216C, pol A1169T, read-out: Drug susceptibility (IC50 value)",35 µM
same,IC50,"isolate HPG026, HSV-1 pol E850Q (2548G>C), also TK R216C, pol A1169T, read-out: Drug susceptibility Penciclovir (PCV)",10 to 40 µM
same,IC50,"isolate HPG027, HSV-1 TK V204G (611T>G), also pol S914L, A1169AT, read-out: Drug susceptibility (IC50 value)",> 160 µM
same,IC50,"isolate HPG027, HSV-1 TK V204G (611T>G), also pol S914L, A1169AT, read-out: Drug susceptibility Penciclovir (PCV)",> 40 µM
same,IC50,"isolate HPG027, HSV-1 pol S914L (2741C>T), also TK V204G, pol A1169T, read-out: Drug susceptibility (IC50 value)",> 160 µM
same,IC50,"isolate HPG027, HSV-1 pol S914L (2741C>T), also TK V204G, pol A1169T, read-out: Drug susceptibility Penciclovir (PCV)",> 40 µM
same,IC50,"isolate HPG029, HSV-1 TK Y172S (515A>C), read-out: Drug susceptibility (IC50 value)",> 160 µM
same,IC50,"isolate HPG029, HSV-1 TK Y172S (515A>C), read-out: Drug susceptibility Penciclovir (PCV)",> 40 µM
same,IC50,"isolate HPG031, HSV-1 pol E1120A (3359A>C), also a TK resistance mutation (footnote e), read-out: Drug susceptibility (IC50 value)",156 µM
same,IC50,"isolate HPG031, HSV-1 pol E1120A (3359A>C), also a TK resistance mutation (footnote e), read-out: Drug susceptibility Penciclovir (PCV)",> 40 µM
same,IC50,"isolate HPG031, HSV-1 pol G139R (415G>C or 415G>A), also a TK resistance mutation (footnote e), read-out: Drug susceptibility (IC50 value)",156 µM
same,IC50,"isolate HPG031, HSV-1 pol G139R (415G>C or 415G>A), also a TK resistance mutation (footnote e), read-out: Drug susceptibility Penciclovir (PCV)",> 40 µM
same,IC50,"isolate HPG032, HSV-1 TK 183* (437_438insA), read-out: Drug susceptibility (IC50 value)",> 160 µM
same,IC50,"isolate HPG032, HSV-1 TK 183* (437_438insA), read-out: Drug susceptibility Penciclovir (PCV)",> 40 µM
